Drawing on patent US20050009775A1 (priority 2001, published 2005), this text covers IC50 for two molecules.

This experiment relates to HCV replicon in the 5-15 subline of Huh-7 cells. Put plainly: Replicon ELISA (HCV replicon assay). The settings on record: Hepatitis C virus; Huh-7 5-15 cells, HCV 1b replicon, 72 hours, NS4a ELISA. In kind it is cell-based, hepatitis C virus (HCV 1b). The source says: The 5-15 subline of Huh-7 cells (Lohmann, V., Korner, F., Koch, J-O., Herian, U., Theilmann, L. & Bartenschlager, R., 1999, Science, 2, pp 110-113) were used for these assays. These are human hepatocellular carcinoma cells stably transfected with an HCV replicon comprising the majority of the HCV 1b genome with the addition of a selectable marker gene, but lacking the genes encoding for all structural proteins and non-structural protein (NS) 2. The replicon RNA is self-replicating and fully functional viral proteins are translated from it. A quantifiable and specific reduction of expressed protein in the presence of a drug can be used as a measure of replicon inhibition.
Stock solutions of compound samples were formulated to 40 mM in DMSO. […]
ELISA step: Growth medium was removed from the plate and the cell monolayers were washed gently once with phosphate buffered saline (PBS) prior to fixing with a 1:1 mix of acetone:methanol for 5 minutes. […] The reaction was stopped by the addition of 25 μl per well of 2M sulphuric acid and the plates were read spectrophotometrically at 490 nm. […]
The absorbance values from all compound-free wells that had received both primary and secondary antibodies were averaged to obtain a positive control value. The mean absorbance value from the compound-free wells that had not received the primary antibody was used to provide the negative (background) control value. […]
A general note: A replicon is a self-replicating genome or part of one, used to study replication in cells.

pIC50: −log10 of the molar value. A value given as a limit tells only on which side of the number the result lay.

Usually pIC50 stands for −log10 of the IC50, conventionally taken in molar units. A low value points to a large IC50. The molecule `COC(=O)[C@H](C)NP(=O)(OC[C@@H]1C[C@@H](O)[C@H](n2ccc(N)nc2=O)O1)Oc1ccccc1` (some centres unmarked) [Example 2] had a pIC50 of more than 3.70.

As to `C[C@H](NP(=O)(OC[C@@H]1C[C@@H](O)[C@H](n2ccc(N)nc2=O)O1)Oc1ccccc1)C(=O)OCc1ccccc1` (some centres unmarked) [Example 3], the pIC50 was more than 3.70.
